Test results taken from ChEMBL document CHEMBL4130376, “Discovery of methylsulfonyl indazoles as potent and orally active respiratory syncytial Virus(RSV) fusion inhibitors” (Eur J Med Chem, 2017).

How the values were obtained:
[1] = Plasma clearance in ICR mouse at 2 mg/kg, iv; assay type: ADME, organism-based
[2] = AUC (0 to 24 hrs) in ICR mouse at 10 mg/kg, po; assay type: ADME, organism-based; parameters: time < 24 hr, dose 10 mg/kg, route oral; details: in vivo
[3] = Volume of distribution at steady state in ICR mouse at 2 mg/kg, iv; assay type: ADME, organism-based; details: in vivo, read-out: Vdss
[4] = Oral bioavailability in ICR mouse at 10 mg/kg; assay type: ADME, organism-based; details: in vivo
[5] = Metabolic stability in mouse liver microsomes by high-throughput screening based assay; assay type: ADME, microsome; details: read-out: Stability
[6] = Effective permeability of the compound by PAMPA; assay type: ADME; details: read-out: Peff
[7] = Half life in ICR mouse at 10 mg/kg, po; assay type: ADME, organism-based; details: in vivo
[8] = Metabolic stability in rat liver microsomes by high-throughput screening based assay; assay type: ADME, microsome; details: read-out: Stability
[9] = Half life in ICR mouse at 2 mg/kg, iv; assay type: ADME, organism-based; details: in vivo
[10] = Metabolic stability in human liver microsomes by high-throughput screening based assay; assay type: ADME, microsome; details: read-out: Stability
[11] = Tmax in ICR mouse at 10 mg/kg, po; assay type: ADME, organism-based; details: in vivo
[12] = Cmax in ICR mouse at 2 mg/kg, iv; assay type: ADME, organism-based; parameters: dose 2 mg/kg, route intravenous; details: in vivo
[13] = (§1) AUC (0 to 24 hrs) in ICR mouse at 2 mg/kg, iv; assay type: ADME, organism-based; parameters: time < 24 hr, dose 2 mg/kg, route intravenous; details: ICR, in vivo
[14] = Cmax in ICR mouse at 10 mg/kg, po; assay type: ADME, organism-based; parameters: dose 10 mg/kg, route oral; details: in vivo
[15] = Half life in ICR mouse at 25 mg/kg, po; assay type: ADME, organism-based; details: in vivo
Mus musculus [16] = assay: AUC (0 to 24 hrs) in ICR mouse at 25 mg/kg, po; assay type: ADME, organism-based; parameters: dose 25 mg/kg, time < 24 hr, route oral; details: in vivo
[17] = Cmax in ICR mouse at 25 mg/kg, po; assay type: ADME, organism-based; parameters: dose 25 mg/kg, route oral; details: in vivo
Mus musculus [18] = assay: Oral bioavailability in ICR mouse at 25 mg/kg; assay type: ADME, organism-based; details: in vivo
[19] = Tmax in ICR mouse at 25 mg/kg, po; assay type: ADME, organism-based; details: in vivo
Mus musculus [20] = assay: as §1; assay type: ADME, organism-based; parameters: time < 24 hr, dose 2 mg/kg, route intravenous; details: in vivo, 24 h
[21] = Cmax in rat at 5 mg/kg, po; assay type: ADME, organism-based; parameters: dose 5 mg/kg, route oral; details: in vivo
[22] = Volume of distribution at steady state in rat at 1 mg/kg, iv; assay type: ADME, organism-based; details: in vivo, read-out: Vdss
[23] = Tmax in rat at 5 mg/kg, po; assay type: ADME, organism-based; details: in vivo
[24] = AUC (0 to 24 hrs) in rat at 5 mg/kg, po; assay type: ADME, organism-based; parameters: dose 5 mg/kg, time < 24 hr, route oral; details: in vivo
[25] = Cmax in rat at 1 mg/kg, iv; assay type: ADME, organism-based; parameters: dose 1 mg/kg, route intravenous; details: in vivo
[26] = Oral bioavailability in rat at 5 mg/kg; assay type: ADME, organism-based; details: in vivo
[27] = Half life in rat at 1 mg/kg, iv; assay type: ADME, organism-based; details: in vivo
Rattus norvegicus = assay: AUC (0 to 24 hrs) in rat at 1 mg/kg, iv; assay type: ADME, organism-based; parameters: dose 1 mg/kg, time < 24 hr, route intravenous; details: in vivo
[28] = Tmax in ICR mouse at 12.2 mg/kg, po; assay type: ADME, organism-based; details: in vivo
Mus musculus [29] = assay: AUC (0 to 24 hrs) in ICR mouse at 12.2 mg/kg, po; assay type: ADME, organism-based; parameters: dose 12.2 mg/kg, time < 24 hr, route oral; details: in vivo
Mus musculus [30] = assay: Oral bioavailability in ICR mouse at 12.2 mg/kg; assay type: ADME, organism-based; details: in vivo
[31] = Volume of distribution at steady state in ICR mouse at 1 mg/kg, iv; assay type: ADME, organism-based; details: in vivo, read-out: Vdss
Mus musculus [32] = assay: AUC (0 to 24 hrs) in ICR mouse at 1 mg/kg, iv; assay type: ADME, organism-based; parameters: time < 24 hr, dose 1 mg/kg, route intravenous; details: in vivo
[33] = Cmax in ICR mouse at 12.2 mg/kg, po; assay type: ADME, organism-based; parameters: dose 12.2 mg/kg, route oral; details: in vivo
[34] = Cmax in ICR mouse at 1 mg/kg, iv; assay type: ADME, organism-based; parameters: dose 1 mg/kg, route intravenous; details: in vivo
[35] = AUC (0 to 24 hrs) in ICR mouse at 12.5 mg/kg, po; assay type: ADME, organism-based; parameters: time < 24 hr, dose 12.5 mg/kg, route oral; details: in vivo
[36] = Oral bioavailability in ICR mouse at 12.5 mg/kg; assay type: ADME, organism-based; details: in vivo
[37] = Half life in ICR mouse at 12.5 mg/kg, po; assay type: ADME, organism-based; details: in vivo
[38] = Cmax in ICR mouse at 12.5 mg/kg, po; assay type: ADME, organism-based; parameters: dose 12.5 mg/kg, route oral; details: in vivo
[39] = Tmax in ICR mouse at 12.5 mg/kg, po; assay type: ADME, organism-based; details: in vivo

Compound | Vd [3] [L/kg] | CLhep predicted [5] [mL/min/kg] | Papp [6] [×10⁻⁶ cm/s] | CLhep predicted [8] [mL/min/kg] | half-life [9] [min] | CLhep predicted [10] [mL/min/kg] | Cmax [12] [ng/mL] | other results
CC(C)(O)CCCn1c(Cn2nc(S(C)(=O)=O)c3ccncc32)nc2cc(Cl)ccc21 | 1.09 | 20.7 | 2.57 | 2.96 | 14.5 | 5.17 | 1300 | clearance [1]: 60.4 mL/min/kg; AUC(0-t) at 24 h [2]: 809 ng·h/mL; bioavailability [4]: 29.3%; half-life [7]: 307 min; Tmax [11]: 15 min; AUC(0-t) at 24 h [13]: 552 ng·h/mL; Cmax [14]: 340 ng/mL
CS(=O)(=O)c1nn(Cc2nc3cc(Cl)ccc3n2CCCCO)c2cnccc12 | 1.08 | 25.5 | 2.42 | 20.7 | 17.8 | 2.58 | 1420 | half-life [15]: 109 min; AUC (Mus musculus [16]): 580 ng·h/mL; Cmax [17]: 425 ng/mL; F (Mus musculus [18]): 19%; Tmax [19]: 15 min; AUC (Mus musculus [20]): 1380 ng·h/mL
CN(C)S(=O)(=O)c1cn(Cc2nc3cc(Cl)ccc3n2CCCS(C)(=O)=O)c2ccccc12 | – | 81.7 | 1.55 | 56.2 | – | 21.9 | – | –
CS(=O)(=O)CCCn1c(Cn2nc(S(C)(=O)=O)c3ccncc32)nc2cc(Cl)ccc21 | – | 75.5 | 1.55 | 39.9 | – | 11.3 | – | –
CS(=O)(=O)c1nn(Cc2nc3cc(Cl)ccc3n2CCCCC(F)(F)F)c2cnccc12 | – | 22.7 | 0.95 | 6.15 | – | 4.57 | – | –
CS(=O)(=O)CCCn1c(Cn2cc(S(C)(=O)=O)c3ccccc32)nc2cc(Cl)ccc21 | – | 34 | 1.55 to 2.36 | 1.33 | – | 0.66 | – | Cmax [21]: 4.05 ng/mL; Vd [22]: 2.71 L/kg; Tmax [23]: 280 min; AUC(0-t) at 24 h [24]: 21.4 ng·h/mL; Cmax [25]: 371 ng/mL; bioavailability [26]: 1.46%; half-life [27]: 40.4 min; AUC (Rattus norvegicus): 294 ng·h/mL
CS(=O)(=O)c1nn(Cc2nc3cc(Cl)ccc3n2CCOCCO)c2cnccc12 | – | 14.2 | 3.12 | 13.7 | – | 1.91 | – | –
CS(=O)(=O)c1nn(Cc2nc3cc(Cl)ccc3n2CC2COC2)c2cnccc12 | – | 9 | 3.22 | 19.8 | – | 3.9 | – | Tmax [28]: 30 min; AUC (Mus musculus [29]): 989 ng·h/mL; F (Mus musculus [30]): 23.8%; Vd [31]: 0.88 L/kg; AUC (Mus musculus [32]): 2870 ng·h/mL; Cmax [33]: 972 ng/mL; Cmax [34]: 1270 ng/mL
CS(=O)(=O)c1nn(Cc2nc3cc(Cl)ccc3n2CCCO)c2cnccc12 | 8.3 | 15.3 | 3.47 | 14.9 | 243 | 2.96 | 1730 | clearance [1]: 37.4 mL/min/kg; AUC(0-t) at 24 h [35]: 891 ng·h/mL; bioavailability [36]: 17.1%; half-life [37]: 396 min; Cmax [38]: 155 ng/mL; AUC(0-t) at 24 h [13]: 954 ng·h/mL; Tmax [39]: 30 min
